# From ChEMBL document CHEMBL1138726, “Novel diarylsulfonylurea derivatives as potent antimitotic agents” (Bioorg Med Chem Lett, 2004)
# Columns and labels:
# A549 = assay: Inhibition of human non-small cell lung cancer A549 cell proliferation; format: functional
# HCT-116 = assay: Compound was tested for growth inhibition of human colon carcinoma HCT116 cell line; format: functional
# NCI-H460 = assay: Compound was tested for growth inhibition of human non-small cell lung cancer NCI-H460 cell line; format: functional
# [1] = Compound was tested for inhibition of tubulin polymerisation
# NCI/ADR-RES = assay: Compound was tested for growth inhibition of multidrug resistant tumor MCF-7/ADR cell line; format: functional; settings: Homo sapiens
# NCI-H226 = assay: Compound was tested for growth inhibition of multidrug resistant tumor NCI-H226 cell line; format: functional; settings: Homo sapiens
# MCF7 = assay: Compound was tested for growth inhibition of MCF-7 cell line (non multidrug resistant); format: functional; settings: Homo sapiens
# A498 = assay: Compound was tested for growth inhibition of multidrug resistant tumor A498 cell line; format: functional; settings: Homo sapiens
# HCT-15 = assay: Compound was tested for growth inhibition of multidrug resistant tumor HCT-15 cell line; format: functional; settings: Homo sapiens
# [2] = Compound was tested for inhibition of tubulin polymerisation at 1 uM
SMILES,GI50 (A549) [µM],GI50 (HCT-116) [µM],GI50 (NCI-H460) [µM],IC50 [1] [µM],GI50 (NCI/ADR-RES) [µM],GI50 (NCI-H226) [µM],GI50 (MCF7) [µM],GI50 (A498) [µM],GI50 (HCT-15) [µM],inhibition [2] [%]
O=C(c1cccs1)N1CCc2cc(S(=O)(=O)N3C[C@H](c4ccccc4)NC3=O)ccc21,0.02,0.01,0.02,1.6,,,,,,
CCOC(=O)N1CCc2cc(S(=O)(=O)N3C[C@H](c4ccccc4)NC3=O)ccc21,0.08,0.08,0.08,1.5,,,,,,
O=C(CNc1ccccc1)N1CCc2cc(S(=O)(=O)N3C[C@H](c4ccccc4)NC3=O)ccc21,0.08,0.05,0.15,3.5,0.18,0.15,0.15,0.15,0.1,
Nc1ccc(C(=O)N2CCc3cc(S(=O)(=O)N4CC(c5ccc(F)cc5)NC4=O)ccc32)cc1 (centres undefined),1.2,1.1,0.9,,,,,,,
O=C(NC1CCCCC1)N1CCc2cc(S(=O)(=O)N3C[C@H](c4ccccc4)NC3=O)ccc21,0.06,0.05,0.08,2,1.3,0.15,0.15,0.7,0.12,
CN1CCN(CCOC(=O)N2CCc3cc(S(=O)(=O)N4C[C@H](c5ccccc5)NC4=O)ccc32)CC1,1,1,0.9,30,,,,,,
O=C(Cc1cccs1)N1CCc2cc(S(=O)(=O)N3C[C@H](c4ccccc4)NC3=O)ccc21,0.007,0.006,0.007,< 1,,,,,,82
O=C(c1cc(Cl)nc(Cl)c1)N1CCc2cc(S(=O)(=O)N3C[C@H](c4ccccc4)NC3=O)ccc21,0.38,0.38,0.7,22,,,,,,
CCOC(=O)Nc1ccc(S(=O)(=O)N2C[C@H](c3ccccc3)NC2=O)cc1C,0.04,0.07,0.07,6,0.15,0.45,0.15,0.13,0.1,
CC(=O)O[C@H]1C(=O)[C@@]2(C)[C@H]([C@H](OC(=O)c3ccccc3)[C@]3(O)C[C@H](OC(=O)[C@H](O)[C@@H](NC(=O)c4ccccc4)c4ccccc4)C(C)=C1C3(C)C)[C@]1(OC(C)=O)CO[C@@H]1C[C@@H]2O [PACLITAXEL],0.01,< 0.001,0.007,,8,20,0.01,3.5,0.3,
O=C(c1ccncc1)N1CCc2cc(S(=O)(=O)N3C[C@H](c4ccccc4)NC3=O)ccc21,0.13,0.08,0.09,10.3,,,,,,
CC[C@]1(O)C[C@H]2CN(CCc3c([nH]c4ccccc34)[C@@](C(=O)OC)(c3cc4c(cc3OC)N(C=O)[C@H]3[C@@](O)(C(=O)OC)[C@H](OC(C)=O)[C@]5(CC)C=CCN6CC[C@]43[C@@H]65)C2)C1 [VINCRISTINE],0.02,0.001,0.003,,,,,,,
O=C(c1ccc([N+](=O)[O-])o1)N1CCc2cc(S(=O)(=O)N3C[C@H](c4ccccc4)NC3=O)ccc21,0.95,0.27,0.95,40,,,,,,
Nc1ccc(C(=O)N2CCc3cc(S(=O)(=O)N4CC(c5cccs5)NC4=O)ccc32)cc1 (centres undefined),0.18,0.3,0.25,10.5,,,,,,
O=C(NCCN1CCOCC1)N1CCc2cc(S(=O)(=O)N3C[C@H](c4ccccc4)NC3=O)ccc21,2.8,1.2,1,,,,,,,
O=C(c1ccco1)N1CCc2cc(S(=O)(=O)N3CC(c4cccs4)NC3=O)ccc21 (centres undefined),0.06,0.07,0.06,4,,,,,,
Nc1ccc(C(=O)Nc2ccc(S(=O)(=O)N3C[C@H](c4ccccc4)NC3=O)cc2Cl)cc1,0.06,0.06,0.06,5.5,,,,,,
Nc1ccc(C(=O)N2CCc3cc(S(=O)(=O)N4C[C@H](c5ccccc5)NC4=O)ccc32)cc1,0.02,0.01,0.02,1.5,2,0.1,0.01,1.2,0.12,
